In assay [1] the target is T1, cAMP and cAMP-inhibited cGMP 3',5'-cyclic phosphodiesterase 10A (Rattus norvegicus, UniProt Q9QYJ6).
T1 sequence (Q9QYJ6 whole entry): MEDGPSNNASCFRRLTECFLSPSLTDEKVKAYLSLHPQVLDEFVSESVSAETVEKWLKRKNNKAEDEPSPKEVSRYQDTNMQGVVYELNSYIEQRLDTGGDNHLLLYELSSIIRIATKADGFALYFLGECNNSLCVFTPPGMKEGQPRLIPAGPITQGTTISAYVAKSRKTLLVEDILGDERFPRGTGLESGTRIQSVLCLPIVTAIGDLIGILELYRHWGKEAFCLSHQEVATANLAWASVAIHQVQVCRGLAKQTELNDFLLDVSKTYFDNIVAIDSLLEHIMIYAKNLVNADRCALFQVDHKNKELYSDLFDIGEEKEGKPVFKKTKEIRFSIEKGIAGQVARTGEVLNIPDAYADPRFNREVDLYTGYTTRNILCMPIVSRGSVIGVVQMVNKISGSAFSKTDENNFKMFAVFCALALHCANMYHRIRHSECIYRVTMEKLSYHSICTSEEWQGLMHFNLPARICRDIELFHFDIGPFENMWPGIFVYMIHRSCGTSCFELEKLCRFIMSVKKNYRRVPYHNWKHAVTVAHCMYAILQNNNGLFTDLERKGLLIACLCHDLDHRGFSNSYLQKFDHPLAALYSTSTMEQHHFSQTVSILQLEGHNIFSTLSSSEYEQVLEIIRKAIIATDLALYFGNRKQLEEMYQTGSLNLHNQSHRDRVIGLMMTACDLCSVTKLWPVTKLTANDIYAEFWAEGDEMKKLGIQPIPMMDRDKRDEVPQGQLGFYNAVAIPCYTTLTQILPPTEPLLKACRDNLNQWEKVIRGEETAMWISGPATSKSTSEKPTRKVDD
Nature of the assay: In Vitro Assay: Rat recombinant PDE10a (rPDE10a) was expressed in Sf9 cells using a recombinant rPDE10a baculovirus construct. Cells were harvested after 48 h of infection and the rPDE10a protein was purified by metal chelate chromatography on Ni-sepharose 6FF. Tested compounds were dissolved and diluted in 100% DMSO to a concentration 100 fold of the final concentration in the assay. Compound dilutions (0.4 uL) were added in 384 well plates to 20 uL of incubation buffer (50 mM Tris pH 7.8, 8.3 mM MgCl2, 1.7 mM EGTA). 10 uL of rPDE10a enzyme in incubation buffer was added and the reaction was started by addition of 10 uL substrate to a final concentration of 60 nM cAMP and 0.008 uCi3H-cAMP. The reaction was incubated for 60 min at rt. After incubation, the reaction was stopped with 20 uL of 17.8 mg/mL PDE SPA beads. After sedimentation of the beads during 30 min the radioactivity was measured in a Perkin Elmer Topcount scintillation counter.

Assay [2] deals with cAMP and cAMP-inhibited cGMP 3',5'-cyclic phosphodiesterase 10A (Homo sapiens, UniProt Q9Y233). Kind of assay: In Vitro Assay: Human recombinant PDE10A2 was expressed in Sf9 cells, using a recombinant baculovirus construct containing the full length sequence containing a 6ÿHis sequence following the start Met to allow metal affinity purification of the recombinant protein. Cells were harvested and the phosphodiesterase protein was purified by metal chelate chromatography on Ni-sepharose 6FF.The affinity of the compounds of Formula (I) for phophodiesterases (PDE) was measured by a scintillation proximity assay (SPA). PDE Yttrium Silicate SPA beads allow PDE activity to be measured by direct binding of the primary phosphate groups of non-cyclic AMP or GMP to the beads via a complex iron chelation mechanism. The amount of bound tritiated product ([3H]-AMP) is measured by liquid scintillation counting.The compounds were dissolved and diluted in 100% DMSO in polystyrene plates to a concentration of 100-fold the final concentration in the assay. Human PDE10A enzyme solution (10 uL) was added.
Sequence of cAMP and cAMP-inhibited cGMP 3',5'-cyclic phosphodiesterase 10A (Homo sapiens, UniProt Q9Y233) (Q9Y233 whole entry): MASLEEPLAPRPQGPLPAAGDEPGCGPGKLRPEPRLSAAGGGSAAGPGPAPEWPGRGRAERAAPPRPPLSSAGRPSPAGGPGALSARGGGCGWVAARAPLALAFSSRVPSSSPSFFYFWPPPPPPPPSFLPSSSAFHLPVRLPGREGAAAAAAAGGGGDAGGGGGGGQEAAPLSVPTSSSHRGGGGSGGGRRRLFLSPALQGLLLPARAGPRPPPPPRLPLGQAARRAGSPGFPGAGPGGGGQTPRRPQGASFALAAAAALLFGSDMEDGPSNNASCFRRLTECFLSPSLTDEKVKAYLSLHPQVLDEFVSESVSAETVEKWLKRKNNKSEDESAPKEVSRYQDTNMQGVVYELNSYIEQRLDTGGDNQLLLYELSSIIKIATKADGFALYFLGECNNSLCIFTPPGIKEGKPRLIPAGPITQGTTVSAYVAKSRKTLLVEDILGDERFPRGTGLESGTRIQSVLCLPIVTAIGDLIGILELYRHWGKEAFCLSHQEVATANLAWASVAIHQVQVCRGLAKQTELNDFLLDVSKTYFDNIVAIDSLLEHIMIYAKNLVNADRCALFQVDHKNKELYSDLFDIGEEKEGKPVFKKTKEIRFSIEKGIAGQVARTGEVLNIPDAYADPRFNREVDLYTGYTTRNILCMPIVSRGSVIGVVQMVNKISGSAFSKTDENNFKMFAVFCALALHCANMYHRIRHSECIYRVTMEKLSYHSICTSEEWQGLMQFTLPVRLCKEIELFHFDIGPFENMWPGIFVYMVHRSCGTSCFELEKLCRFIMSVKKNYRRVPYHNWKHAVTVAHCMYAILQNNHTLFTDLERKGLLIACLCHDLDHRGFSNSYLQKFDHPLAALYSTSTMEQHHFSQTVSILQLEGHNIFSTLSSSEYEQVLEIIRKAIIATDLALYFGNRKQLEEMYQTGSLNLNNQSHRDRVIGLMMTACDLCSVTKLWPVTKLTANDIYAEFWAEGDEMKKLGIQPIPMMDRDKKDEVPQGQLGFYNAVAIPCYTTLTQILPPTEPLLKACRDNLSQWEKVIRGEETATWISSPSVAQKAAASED

Turning to `O=C(O)c1ccc(-c2c(CSc3ccc4ccccc4n3)nc3c(N4CCOCC4)ccnn23)cc1`, the IC50 in assay [1] worked out at 1 nM. Regarding `O=C(O)c1cccc2nc(/C=C/c3nc4c(N5CCOCC5)cc(Cl)nn4c3-c3cccnc3)ccc12`, in assay [1], the half-inhibitory concentration (IC50) stood at 2 nM. In the case of `C(#Cc1nc2c(N3CCOCC3)ccnn2c1-c1ccc(N2CCNCC2)nc1)c1ccc2ccccc2n1`, the IC50 in assay [1] is 1 nM; in assay [2], 3 nM. The like results for `O=C(O)c1cccc2nc(/C=C/c3nc4c(N5CCOCC5)ccnn4c3-c3ccccc3)ccc12` were, in that order, 1 nM and under 1 nM.

On to `O=C(O)CN1CCC(c2c(C#Cc3ccc4ccccc4n3)nc3c(N4CCOCC4)ccnn23)CC1`, for which the half-maximal inhibitory concentration (IC50) in assay [1] stood at 5 nM; in assay [2] it was 7 nM. As for `COc1cccc(-c2c(/C=C/c3ccc4c(C(=O)O)cccc4n3)nc3c(N4CCOCC4)ccnn23)c1`, the IC50 in assay [2] was found to be 1 nM. As for `C(=C\c1nc2c(N3CCOCC3)ccnn2c1-c1ccc(Sc2nnc[nH]2)nc1)/c1ccc2ccccc2n1`, the IC50 in assay [1] was found to be 4 nM; in assay [2], 6 nM.

On to `N#Cc1ccc(-c2c(/C=C/c3ccc4c(C(=O)O)cccc4n3)nc3c(N4CCOCC4)ccnn23)cc1`, for which the IC50 in assay [1] stood at 1 nM.

The values are drawn from ChEMBL document CHEMBL3886382, “PDE 10a inhibitors for the treatment of type II diabetes” (2015).
